Measurements reported in patent US12686666B2, “Triazine compound salt, crystal form thereof, and production method therefor” (TANABE PHARMA CORPORATION, priority 2020, dated 2026).

Experiments:
[1] = Hygroscopicity or deliquescency evaluation (moisture adsorption, DVS); type: physicochemical
Method: Hygroscopicity or deliquescency was evaluated as follows by using a moisture adsorption measurement device DVS-1 or DVS-intrinsic (Surface Measurement Systems Limited). Each sample (about 5 mg) was placed into an aluminum plate of which the tare weight had been corrected in advance, and the plate was hung on the precision balance of said device to precisely measure the weight at the start of measurement. The humidity was changed in a stepwise manner in a chamber at 25° C., the weight change was recorded with time, and the equilibrium weight was calculated at each humidity. On the basis of the weight at a dried condition (0% RH), the weight change rate and hydration number at each humidity were calculated.
Hygroscopicity or deliquescency was evaluated as follows by using a moisture adsorption measurement device DVS-1 or DVS-intrinsic (Surface Measurement Systems Limited). Each sample was placed into a cell of which the tare weight had been corrected in advance, and the cell was hung on the precision balance of said device to precisely measure the weight at the start of measurement. The humidity was changed in a stepwise manner, the weight change was recorded with time, and the equilibrium weight was calculated at each humidity. On the basis of the weight of anhydride converted from the amount of water at a dried condition (0% RH) or at the start of measurement observed by an alternative method, the weight change rate at each humidity was calculated.

[2] = Chemical stability evaluation (storage 1 week, liquid chromatography peak area %); type: physicochemical; conditions: did not show a significant increase of related substances
Method: Each about 1 mg of a sample stored at 60° C. (sealed) or 60° C./75% RH (open) for 1 week and an unstored sample (at the start of test) was dissolved into a mixed solution of acetonitrile/water (1:1) (5 mL) to obtain each sample solution. A test was carried out by liquid chromatographic method under the following conditions to measure each peak area (%).
Each peak area (%) was measured by using Waters ACQUITY UPLC under the following conditions. • Detector: Photodiode array (measurement wavelength: 239 nm) • Column: Waters ACQUITY BEH C18 (2.1 mm×100 mm, 1.7 μm) • Column temperature: constant temperature about 40° C. • Mobile phase: Solution A; water/TFA (2000:1), Solution B; Acetonitrile/TFA (2000:1) • Concentration gradient control: B % 2→100% (15 minutes) • Flow rate: 0.5 mL/min • Injection volume: 2 μL
Each sample was stored at 60° C. under a sealed condition and at 60° C. under 75% RH for 1 week, and an increase or decrease of related substance(s) after the storage was calculated by high-performance liquid chromatographic method on the basis of the area percentage of each peak. Also, the condition of each sample after the storage was observed.

[3] = Thermal stability evaluation (TG/DTA weight change); type: physicochemical; conditions: for Thermal stability TG: weight change: 25-274° C.
Method: (§1) Thermal stability was measured and evaluated by using a thermogravimetry/differential thermal analyzer TG/DTA7200 (SII NanoTechnology Inc.) under the following conditions. • Rate of temperature increase: 10° C./min • Range of temperature increase: 25 to 300° C. • Atmosphere: nitrogen 200 mL/min <Hygroscopicity or Deliquescency Evaluation>
as §1, with “Inc.) under the following conditions • Rate of temperature increase: 10° C./min • Range of temperature increase: 30 to 300° C. • Atmosphere: nitrogen 200 mL/min • or • using a TGA/DSC1 thermogravimetric analyzer (manufactured by Mettler Toledo, STARe system)” for “Inc.)”, “nitrogen 50” for “nitrogen 200”

[4] = Pharmacokinetics in dogs treated with a promotor (pentagastrin) or an inhibitor (omeprazole) of gastric acid secretion; type: in vivo, dogs (male beagle); conditions: dog; for Cmax / AUC(0-inf) / AUC(0-t) / Tmax / half-life: male, beagle, plasma, po, 10 mg, fasted, mean; for Cmax: oral 10 mg/capsule (free form equivalent); for AUC(0-inf) / AUC(0-t) / Tmax / half-life: oral 10 mg/capsule
Method: The pharmacokinetics of hydrobromide of the Triazine compound A and the Triazine compound A under gastric acid secretion and gastric pH adjustment was evaluated by using dogs treated with a promotor of gastric acid secretion or an inhibitor of gastric acid secretion according to a crossover method of 2 groups with 4 phases.
Pentagastrin was used in the treatment of a promotor of gastric acid secretion. Pentagastrin (2.8 mg) was dissolved into dimethylsulfoxide (7.0 mL) and water for injection (7.0 mL) to prepare an administration solution, and administered into a muscle in the thigh at a dose of […]. Pentagastrin was administered 0.5 hour before and 0.5 hour after the administration of each test material (hydrobromide of the Triazine compound A (Compound 1 prepared in Example 1) or the Triazine compound A (Compound 10 prepared in Example 1)). Omeprazole was used in the treatment of an inhibitor of gastric acid secretion. Omeprazole (90 mg) was dissolved into a 1:1 mixed solution (22.5 mL) of a 0.1% aqueous solution of sodium hydrogen carbonate (w/v) and polyethyleneglycol 400 to prepare an administration solution, and administered into a saphenous vein of the hind limb at a dose of 1 mg/0.25 mL/kg. Omeprazole was administered 1 hour before the administration of each test material.
After 25 mL of water for injection was administered to each dog by using a syringe having an oral catheter, the hydrobromide of the Triazine compound A or the Triazine compound A was forcedly orally administered to each dog at a dose of 10 mg/capsule (in case of hydrobromide of the Triazine compound A, free form equivalent (i.e., 10 mg in terms of the Triazine compound A)), and additional 25 mL of water for injection was administered to each dog through the syringe having an oral catheter. Each test material was administered under fasting state, and each dog was fed 6 hours after the administration. Each dog was deprived of water from 1 hour before the administration of each test material to 2 hours after the administration.
Tests were carried out by using 6 heads of 4 year-old male beagle and dividing them into two groups, each of which comprises 3 heads. The dogs in Group 1 were subjected to the administration in the order of (Phase 1) omeprazole administration, then the Triazine compound A administration, (Phase 2) omeprazole administration, then the hydrobromide of the Triazine compound A administration, (Phase 3) pentagastrin administration, then the Triazine compound A administration, and (Phase 4) pentagastrin administration, then the hydrobromide of the Triazine compound A administration, and the dogs in Group 2 were subjected to the administration in the order of (Phase 1) omeprazole administration, then the hydrobromide of the Triazine compound A administration, (Phase 2) omeprazole administration, then the Triazine compound A administration, (Phase 3) pentagastrin administration, then the hydrobromide of the Triazine compound A administration, and (Phase 4) pentagastrin administration, then the Triazine compound A administration, and washout period between each phase was 6 or 7 days. After 15 minutes, 30 minutes, 1, 2, 4, 6, 8, and 24 hour(s) from the administration of the hydrobromide of the Triazine compound A or the Triazine compound A, 0.6 mL of whole blood sample was collected under awakening of each dog from a cephalic vein by using a heparin sodium injection. The whole blood sample was processed into a plasma, and the drug concentration of the Triazine compound A was analyzed by using liquid chromatography-tandem mass spectrometry (LC-MS/MS). […]

human CYP11B2 = biological target: T1, human CYP11B2 (Homo sapiens, UniProt P19099); test: Aldosterone synthase (CYP11B2) inhibitory activity measurement; type: biochemical; conditions: mitochondrial fraction of V79 cells expressing human CYP11B2; deoxycorticosterone substrate; HTRF; read-out: IC50 (aldosterone production inhibition)
T1 construct: expressed in transfected cells; the mitochondrial fraction was used
T1 sequence (P19099 25-503): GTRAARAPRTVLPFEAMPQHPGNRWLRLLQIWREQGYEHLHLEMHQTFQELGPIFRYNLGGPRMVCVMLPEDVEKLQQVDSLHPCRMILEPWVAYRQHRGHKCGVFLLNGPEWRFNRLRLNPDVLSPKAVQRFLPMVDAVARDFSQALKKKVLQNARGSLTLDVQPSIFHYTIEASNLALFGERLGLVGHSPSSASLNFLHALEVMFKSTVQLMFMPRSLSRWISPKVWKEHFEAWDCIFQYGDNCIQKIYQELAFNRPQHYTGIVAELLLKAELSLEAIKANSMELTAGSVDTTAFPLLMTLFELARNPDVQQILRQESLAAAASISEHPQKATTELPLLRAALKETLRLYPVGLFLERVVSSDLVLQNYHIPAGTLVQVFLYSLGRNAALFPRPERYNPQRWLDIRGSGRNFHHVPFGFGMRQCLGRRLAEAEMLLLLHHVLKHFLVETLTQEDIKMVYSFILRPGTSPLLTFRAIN
Method: The pcDNA3.1-human CYP11B2 plasmid was transfected into a Chinese hamster lung fibroblast V79 cell line to produce a cell line stably expressing a human CYP11B2 gene.
The cells were cultured and grown in the Dulbecco's modified Eagle's/Ham's medium supplemented with 10% fetal bovine serum and 1% G418 disulfate solution under the environment of 37° C., 95% air, and 5% CO2, and the grown cells were harvested.
Then, the cells were fractionated to obtain mitochondria by reference to a method described in Chabre et al. JCE & M 85 (11) 4060-68, 2000. In particular, the cells suspended in a 5 mmol/L Tris-HCl buffer (pH 7.4) containing 250 mmol/L sucrose were homogenized in a Teflon (registered trademark) Potter Elvehjem homogenizer, and then the suspension was centrifuged (800×g, 15 min). […]
The mitochondrial fraction diluted with a buffer containing 10 mmol/L KH2PO4, 10 mmol/L Tris, 20 mmol/L KCl, 25 mmol/L sucrose, 5 mmol/L MgCl2, and 0.05% bovine serum albumin was dispensed to a 96 well plate. […] The amount of the produced aldosterone in the incubated solution was determined by using HTRF (Homogeneous Time Resolved Fluorescence) method.
IC50 (nmol/L) was calculated by analyzing the aldosterone production inhibition rate (%) of each concentration of the Triazine compound A of the present invention by non-linear regression to a logistic curve.

[5] = Omeprazole, reduced gastric acid secretion
[6] = Pentagastrin, increased gastric acid secretion

SMILES	Cmax [4, 5]	Cmax [4, 6]	AUC(0-inf) [4, 5]	AUC(0-t) [4, 5]	Tmax [4, 5]	half-life [4, 5]	AUC(0-inf) [4, 6]	AUC(0-t) [4, 6]	Tmax [4, 6]	half-life [4, 6]	further results
Br.CC(=O)N[C@H]1CC[C@H](NC(=O)CN2CCN(c3nncc(-c4ccc(C)cc4)n3)CC2)CC1 [Hydrobromide Form A crystal, 3-[4-[[trans-4-(acetamino)cyclohexyl]carbamoylmethyl]piperazin-1-yl]-5-(p-tolyl)-1,2,4-triazine hydrobromide]	256 ng/mL	263 ng/mL	2030 ng·h/mL	1990 ng·h/mL	1.83 h	4.3 h	2020 ng·h/mL	1990 ng·h/mL	1.67 h	4.24 h	Hygroscopicity or Deliquescency Weight change at 90% RH ([1]; Table 5, 25° C., relative to weight at 0% RH): 1.0%; Hygroscopicity or Deliquescency Weight change at 90% RH ([1]; Table 10, *1 with hydration stage): 1.0% ^; Hygroscopicity or deliquescency, conclusion in words ([1]; from Table 5): excellent in the reduced hygroscopicity or deliquescency; Chemical stability, conclusion in words [2]: excellent chemical stability; Thermal stability TG: weight change [3]: 0.9%; Thermal stability TG: weight change ([3]; Table 10): 0.98; Thermal stability, conclusion in words ([3]; did not show a significant weight change (Succinate Form A: at 25 to 148° C., melting point)): excellent thermal stability; Change of plasma concentration with the gastric acid conditions ([4]; oral 10 mg free form equivalent, pentagastrin vs omeprazole): not changed
CC(=O)N[C@H]1CC[C@H](NC(=O)CN2CCN(c3nncc(-c4ccc(C)cc4)n3)CC2)CC1 [Triazine compound A, 3-[4-[[trans-4-(acetamino)cyclohexyl]carbamoylmethyl]piperazin-1-yl]-5-(p-tolyl)-1,2,4-triazine]	102 ng/mL	222 ng/mL	1000 ng·h/mL	943 ng·h/mL	3.33 h	5.6 h	1910 ng·h/mL	1690 ng·h/mL	1.42 h	4.26 h	Reduction of AUC under reduced gastric acid conditions as compared to increased gastric acid secretion conditions ([4]; oral 10 mg): about 50%; Reduction of Cmax under reduced gastric acid conditions as compared to increased gastric acid secretion conditions ([4]; oral 10 mg): about 50%; IC50 (human CYP11B2): 9 nM
